Laboratory results reported in patent US8901167B2, “Product and process for inhibition of biofilm development” (National Jewish Health, priority 2004, dated 2014).
Values after ≈ are worked out from the molar mass of the structure shown.

How the values were obtained:
[1] = tested on: P. aeruginosa strain PA01; assay: Antibiotic susceptibility of planktonic population (MIC), NCCLS assay; format: cell-based; settings: Pseudomonas aeruginosa
Procedure: (§1) As human neutrophils enhance biofilm development, the inventors questioned if biofilms formed in the presence of neutrophils had altered patterns of antibiotic resistance. Biofilms and planktonic P. aeruginosa grown in the presence or absence of neutrophils for 24 hours were tested for susceptibility to four clinically relevant classes of antibiotics. […] No significant changes in antibiotic susceptibilities was detected in planktonic P. aeruginosa in the presence of neutrophils. This selective modification of antibiotic resistance supports the conclusion that neutrophils mediate phenotypic changes in addition to greater biofilm thickness.

[2] = tested on: P. aeruginosa strain PA01 biofilm; assay: Antibiotic susceptibility of biofilm population (MBEC), NCCLS assay; format: cell-based; settings: for Susceptibility of biofilms grown in the presence of neutrophils versus absence: biofilms grown 24 hours
Procedure: as §1

[3] = tested on: actin-DNA filaments; assay: Fluorescence microscopy of actin-DNA filaments in neutrophil lysates and CF sputum; design: species or system human; settings: data not shown
Procedure: Samples of sputa from CF patients chronically infected with P. aeruginosa were frozen in liquid nitrogen and stored at −20° C. At the time of analysis, sputa were thawed and resuspended carefully in PBS (1:4 vol/vol ratio) containing 10^7 CFU/ml of P. aeruginosa labeled with the intracellular fluorescent conjugate (CFDA SE) as described in the actin-binding protocol. Samples were incubated for 4 hours at 37° C., then dried on Superfrost/Plus microscope slides (Fisher Scientific) and stained for 15 min with 10 μl of 0.6 μM Alexa Fluor 546 Phalloidin (Molecular Probes), 10 μl of 0.2 μM DAPI, dilactate (Molecular Probes), to visualize F-actin and DNA. Visualization of actin (546/576 nm), DNA (358/461 nm), and P. aeruginosa (492/517 nm) were performed sequentially on the same field, followed by an “overlay” view at all 3 wavelengths. Neutrophil lysates were also combined with P. aeruginosa labeled with CFDA SE for 4 hrs at 37° C., and staining of F-actin and DNA was conducted as described for CF sputa.

[4] = tested on: P. aeruginosa PA01 biofilm; format: cell-based; settings: for Effect on neutrophil-induced enhancement of biofilm formation: CV staining, DNase I 90 Kunitz units/ml, gelsolin 200 nM, FIG. 3C
Procedure: A static biofilm assay was used with polypropylene tubes (9). PA01 was grown overnight under constant rotation to late stationary phase at 37° C. in LB. All biofilm studies were initiated with neutrophils (1×10^7 cells/ml) and PA01 (1×10^6 CFU/ml) in suspension, and cultures were incubated under stationary conditions at 37° C. P. aeruginosa adherent to the tube was considered to be a biofilm, while bacteria not adherent to the surface of the tube was considered to be “planktonic”. Viable P. aeruginosa biofilm and planktonic cells were quantified by sonicating the adherent bacteria in LB, followed by serial dilution and plating to determine CFUs on Pseudomonas Isolation Agar (Difco, Sparks, Md.). P. aeruginosa biofilm density was quantified by crystal violet (CV) staining (9). The contribution of background staining of neutrophil components, tubes and reagents were subtracted from depicted values. Neutrophils were lysed with 0.1% Tween 20 (BioRad, Hercules, Calif.) for 30 min. Neutrophil lysates relatively depleted of F-actin were prepared by precipitating the F-actin using the F-actin/G-actin In Vivo Biochem Kit (Cytoskeleton, Denver, Colo.). The total protein present in the whole cell lysate and the F-actin depleted lysate was determined by the Bradford Protein Assay (BioRad, Hercules, Calif.). Biofilm exopolysaccharide was determined by total carbohydrate assays as previously described (15).
Genomic DNA was isolated from neutrophils and P. aeruginosa using the DNeasy Tissue Kit (Qiagen, Valencia, Calif.) according to the manufacturer's protocol. Actin and DNA polymerization was performed as described previously (38). Effects of filament cleavage was tested by initially treating the samples with 90 Kunitz units/ml of DNase I (43) and/or 200 nM gelsolin (Sigma) (42). Granule proteins were isolated from homogenized human neutrophils by differential centrifugation in a discontinuous Percoll/sucrose gradient (34). Heavy and light granules were immediately suspended in RPMI media and added to P. aeruginosa.

[5] = tested on: P. aeruginosa biofilm; settings: literature refs 39, 43; cited from earlier work
[6] = tested on: P. aeruginosa biofilm; assay: NUNC-TSP biofilm growth of P. aeruginosa suspended in mucin; format: cell-based
Text: When P. aeruginosa was suspended in mucin rather then RPMI media, a similar effect was observed on NUNC-TSP biofilm growth. […] These aggregates of P. aeruginosa may represent the predominant structure of biofilms that are present in the CF airway, and the combination of neutrophils with mucin appears to enhance their formation.

[7] = PA01 + PMN, planktonic, grown with neutrophils 24 hours
[8] = PA01 planktonic, without neutrophils
[9] = PA01 + PMN, biofilm grown with neutrophils 24 hours
[10] = PA01 biofilm, without neutrophils

CC[C@H]1OC(=O)[C@H](C)[C@@H](O[C@H]2C[C@@](C)(OC)[C@@H](O)[C@H](C)O2)[C@H](C)[C@@H](O[C@@H]2O[C@H](C)C[C@H](N(C)C)[C@H]2O)[C@](C)(O)C[C@@H](C)CN(C)[C@H](C)[C@@H](O)[C@]1(C)O [Azithromycin]
MIC [1, 7]: 32 µg/mL
MIC [1, 8]: 64 µg/mL (≈ 85.4 µM)
MBEC [2, 9]: 1024 µg/mL
MBEC [2, 10]: >1024 µg/mL
Susceptibility of biofilms grown in the presence of neutrophils versus absence [2]: unchanged

CC(C)(O/N=C(\C(=O)N[C@@H]1C(=O)N2C(C(=O)[O-])=C(C[n+]3ccccc3)CS[C@H]12)c1csc(N)n1)C(=O)O [Ceftazidime]
MIC [1, 7]: 2 µg/mL
MIC [1, 8]: 2 µg/mL (≈ 3.66 µM)
MBEC [2, 9]: >1024 µg/mL
MBEC [2, 10]: >1024 µg/mL
Susceptibility of biofilms grown in the presence of neutrophils versus absence [2]: unchanged

O=C(O)c1cn(C2CC2)c2cc(N3CCNCC3)c(F)cc2c1=O [Ciprofloxacin]
MIC [1, 7]: 2 µg/mL
MIC [1, 8]: 0.5 µg/mL (≈ 1.51 µM)
MBEC [2, 9]: 128 µg/mL
MBEC [2, 10]: 512 µg/mL
Susceptibility of biofilms grown in the presence of neutrophils versus absence [2]: significantly greater susceptibility

NC[C@H]1O[C@H](O[C@H]2[C@H](O)[C@@H](O[C@H]3O[C@H](CO)[C@@H](O)[C@H](N)[C@H]3O)[C@H](N)C[C@@H]2N)[C@H](N)C[C@@H]1O [Tobramycin]
MIC [1, 7]: 0.5 µg/mL
MIC [1, 8]: 1 µg/mL (≈ 2.14 µM)
MBEC [2, 9]: 256 µg/mL
MBEC [2, 10]: >1024 µg/mL
Susceptibility of biofilms grown in the presence of neutrophils versus absence [2]: significantly greater susceptibility

DNase
Disruption of actin-DNA filaments [3]: near complete disruption of the actin-DNA filaments
Effect on bacterial growth or neutrophil survival [4]: without significantly inhibiting bacterial growth or neutrophil survival
Effect on neutrophil-induced enhancement of biofilm formation [4]: abolished much of the neutrophil-induced enhancement of biofilm formation
Effect on P. aeruginosa biofilm formation [5]: strongly inhibited biofilm formation

gelsolin
Effect on neutrophil-induced enhancement of biofilm formation [4]: significantly reduced the neutrophil-induced enhancement of the biofilm

mucin
Effect on biofilm growth ([6]; absence of neutrophils): increased biofilm growth
Effect on biofilm growth ([6]; presence of neutrophils): no change
